Reference: patent publication EP0494283B1, “1,4-BENZODIOXANE DERIVATIVES, PROCESS FOR THE PREPARATION THEREOF AND PHARMACEUTICAL COMPOSITIONS THEREFROM” (LABORATORIOS MENARINI S.A., priority 1990, dated 1992)
Counter-ions that a name gives are not always drawn. Like-named read-outs stand apart in the source and are kept apart here.

Key:
Type in all cases: cell-based
[1] = test system: PAF-induced platelet aggregation; assay: Inhibition of PAF-induced platelet aggregation (aggregometry, washed platelets); details: Oryctolagus cuniculus, rabbit washed platelets, on the maximum aggregation values of the PAF standard curve, read-out: Paf-antagonism IC₅₀
Protocol: (§1) Platelets are prepared starting from blood samples obtained by means of a carotid cannula from male albino New Zealand rabbits (2-2.5 kg), subjected to anticoagulant treatment with sodium citrate dihydrate (3.2%) 1:10. Blood is centrifuged (150xg, 10 min, 22°C) to separate the platelet-rich plasma fraction (PRP) from erythrocytes. Platelets are separated from plasmatic components by serial washings and centrifugations (Blood, 1986, 62:337), thereafter they are suspended in a physiological buffer at a concentration of 5 x 10⁵/ml. A 400 µl volume of the above mentioned suspension is placed into the cuvette of a multicanal aggregometer (Aggrecoder HU) where it is kept at constant temperature and stirring. After stabilization, platelets are added with 50 µl of physiological buffer containing 100 µM acetylsalicylic acid and apirase 5 mg/ml, in order to block any non PAF-related platelet activation metabolic pathways. Subsequently the platelet suspensions are added with 50 µl of the different solutions to be tested. Changes in light transmission, due to platelet aggregation in the suspension, are recorded and expressed as percent platelet aggregation, according to the procedure by Born and Cross (J. Physiol., 1962, 162:67). Standard curve is performed with PAF within a concentration range of 0.1-1 nM.
Capability to inhibit PAF-induced platelet aggregation is evaluated by means of the aggregometry technique in suspensions of rabbit washed platelets, obtained by means of the same procedure as described in Example 32. For this purpose, the inhibition potency of the products under test, expressed as the corresponding IC₅₀, is evaluated on the maximum aggregation values obtained in PAF standard curve.

HL-60 tumor cells = assay: Cytotoxic activity, Trypan Blue exclusion; details: Homo sapiens, read-out: Cytotoxicity EC₅₀
Protocol: Suspensions of HL-60 Line cells, obtained starting from human promyelocyte leukemia, are incubated in 6-well culture plates for 24 hours at 37°C, at a concentration of 1 x 10⁶ cells/ml, in the presence of the test products, which have previously been dissolved in the culture medium. Cytotoxicity is measured by means of the Trypan Blue exclusion technique (Practical Immunology, pp 29-32, Oxford, England : Blackwell Scientific Publications, 1976).

rabbit washed platelets = assay: Platelet aggregating effect (aggregometry, washed platelets); details: Oryctolagus cuniculus, suspension of rabbit washed platelets, acetylsalicylic acid and apirase added, read-out: Aggregation EC₅₀
Protocol: as §1

[2] = HL-60 cells, 1 x 10⁶ cells/ml, 24 hours at 37°C

Row | Compound | IC50 [1] [µM] | EC50 (HL-60 tumor cells; HL-60, 24 h) [µM] | EC50 (HL-60 tumor cells; [2]) [µM] | other results
1 | C[N+](C)(C)CCCCCCCCCCOCC1COc2ccccc2O1 (centres unmarked) [Example 4, N-[10-[[(1,4-Benzodioxan-2-yl)methyl]oxy]decyl]-N,N,N-trimethylammonium bromide] | 130 | 70 |  | 
2 | C[N+](C)(C)CCCCCCCCCCCCCCCCOCC1COc2ccccc2O1 (centres unmarked) [Example 5, N-[16[[(1,4-Benzodioxan-2-yl)methyl]oxy]hexadecyl]-N,N,N-trimethylammonium bromide] | 20 | 18 |  | 
3 | C[N+](C)(C)CCCCCCOCCCCCCCCCCOCC1COc2ccccc2O1 (centres unmarked) [Example 6, N-[6-[[(10-[[1,4-Benzodioxan-2-yl)methyl]oxy]decyl]oxy]hexyl]-N,N,N-trimethylammonium bromide] |  |  | 11 | 
4 | C[N+](C)(C)CCCCCCCCCCOCCCCCCCCCCOCC1COc2ccccc2O1 (centres unmarked) [Example 7, N-[10-[[10-[[(1,4-Benzodioxan-2-yl)methyl]oxy]decyl]oxy]decyl]-N,N,N-trimethylammonium bromide] |  |  | 15 | 
5 | CC[N+](CC)(CC)CCCCOCC1COc2ccccc2O1 (centres unmarked) [Example 8, N-[4-[[(1,4-Benzodioxan-2-yl)methyl]oxy]butyl]-N,N,N-triethylammonium bromide] |  |  |  | EC50 (rabbit washed platelets): > 190 µM
6 | CC[N+](CC)(CC)CCCCCCCCCCOCC1COc2ccccc2O1 (centres unmarked) [Example 10, N-[10-[[(1,4-Benzodioxan-2-yl)methyl]oxy]decyl]-N,N,N-triethylammonium bromide] | 90 | 30 |  | 
7 | c1ccc2c(c1)OCC(COCCCCCCCCCCN1CCCCC1)O2 (centres unmarked) [Example 15, N-[10-[[(1,4-Benzodioxan-2-yl)methyl]oxy]decyl]piperidine hydrochloride] |  |  | 20 | 
8 | c1ccc2c(c1)OCC(COCCCCN1CCOCC1)O2 (centres unmarked) [Example 16, N-[4-[[(1,4-Benzodioxan-2-yl)methyl]oxy]butyl]morpholine hydrochloride] |  |  | 18 | 
9 | c1ccc2c(c1)OCC(COCCCCCCCCCCN1CCOCC1)O2 (centres unmarked) [Example 19, N-[10-[[(1,4-Benzodioxan-2-yl)methyl]oxy]decyl]morpholine hydrochloride] |  |  | 30 | 
10 | C[N+]1(CCCCCOCC2COc3ccccc3O2)CCCCC1 (centres unmarked) [Example 21, N-[5-[[(1,4-Benzodioxan-2-yl)methyl]oxy]pentyl]-N-methylpiperidinium iodide] |  |  |  | EC50 (rabbit washed platelets): > 190 µM
11 | C[N+]1(CCCCCCCCCCOCC2COc3ccccc3O2)CCCCC1 (centres unmarked) [Example 23, N-[10-[[(1,4-Benzodioxan-2-yl)methyl]oxy]decyl]-N-methylpiperidinium bromide] | 75 | 20 |  | 
12 | C[N+]1(CCCCCCCCCCCCCCCCOCC2COc3ccccc3O2)CCCCC1 (centres unmarked) [Example 24, N-[16-[[(1,4-Benzodioxan-2-yl)methyl]oxy]hexadecyl]-N-methylpiperidinium bromide] |  |  | 6 | 
13 | C[N+]1(CCCCCCOCCCCCCCCCCOCC2COc3ccccc3O2)CCCCC1 (centres unmarked) [Example 25, N-[6-[[(10-[[1,4-Benzodioxan-2-yl)methyl]oxy]decyl]oxy]hexyl]-N-methylpiperidinium bromide] |  |  | 3 | 
14 | C[N+]1(CCCCCCCCCCOCCCCCCCCCCOCC2COc3ccccc3O2)CCCCC1 (centres unmarked) [Example 26, N-[10-[[10-[[(1,4-Benzodioxan-2-yl)methyl]oxy]decyl]oxy]decyl]-N-methylpiperidinium bromide] |  |  | 28 | 
15 | C[N+]1(CCCCCCCCCCOCC2COc3ccccc3O2)CCOCC1 (centres unmarked) [Example 30, N-[10-[[(1,4-Benzodioxan-2-yl)methyl]oxy]decyl]-N-methylmorpholinium iodide] | 190 | 30 |  | 
